Results reported in patent EP1000623A1, “Use of epinastine as antitussivum” (Boehringer Ingelheim International GmbH, priority 1998, dated 2000).
Structures can show the parent of a compound that is named as a salt.

Test system: place preference
Experiment: Place conditioning (conditioned place preference, shuttle box)
Assay type: in vivo, Male ICR mice
Settings: 1 mg/kg, s.c.; mean ± S.E., n=8; time in drug-paired minus saline-paired place, 900-s session
Description: Male ICR mice (6 weeks old; Tokyo Laboratory Animals Science Co., Ltd., Tokyo, Japan), weighing about 30 g, were used. They had free access to food and water in an animal room which was maintained at 22 ± 1°C with a 12-hour light-dark cycle. This study was carried out in accordance with the Declaration of Helsinki and/or with the guide for the care and use of laboratory animals as adopted by the committee on the care and use of laboratory animals of Hoshi University, which is accredited by the Ministry of Education, Science, Sports and Culture, Japan.
Place conditioning was conducted as previously using a minor modification of an unbaised procedure [J. Kamei et al., Eur. J. Pharmacol. 318 (1996) 251]. The apparatus used was a shuttle box (15 x 30 x 15 cm: w x 1 x h) which was divided into two compartments of equal size. […] The time spent in each compartment during a 900-s session was then measured in a blinded fashion by an infrared beam sensor (KN-80, Natume, Tokyo, Japan). […]
The potency ration was calculated according to a statistical program (Program 11 of the Pharmacological Calculations System) (8). Conditioning scores represent the time spent in the drug paired place minus the time spent in the saline-paired place, and are expressed as mean ± S.E. The Wilcoxon test was used to determine whether individual doses produced a significant conditioning (P<0.05).

## NC1=NCC2c3ccccc3Cc3ccccc3N12 (stereo not shown) [epinastine, epinastine hydrochloride]
  mean conditioning score: 20.3 ± 61.8 s
